According to patent US7402606B2, “Derivatives of 1-(oxoaminoacetyl) pentylcarbamate as cathepsin K inhibitors for the treatment of bone loss” (SmithKline Beecham Corporation, priority 2002, dated 2008):
pIC50: −log10 of the molar value.

Experiments:
Assay type in all cases: biochemical
rat cathepsin K = biological target: T1, rat cathepsin K (Rattus norvegicus, UniProt O35186); assay: Cathepsin K inhibition assay, rat recombinant enzyme, fluorogenic substrate Cbz-Phe-Arg-AMC; conditions: Table 2, rat cathepsin K; read-out: r Cat K IC50
T1 construct: The proform of cathepsin K was converted to mature cathepsin K by brief exposure to pH 4; made in house; host or cells: baculovirus; Trichoplusia ni High Five cells (virus raised in Sf-9)
T1 sequence (O35186 115-329): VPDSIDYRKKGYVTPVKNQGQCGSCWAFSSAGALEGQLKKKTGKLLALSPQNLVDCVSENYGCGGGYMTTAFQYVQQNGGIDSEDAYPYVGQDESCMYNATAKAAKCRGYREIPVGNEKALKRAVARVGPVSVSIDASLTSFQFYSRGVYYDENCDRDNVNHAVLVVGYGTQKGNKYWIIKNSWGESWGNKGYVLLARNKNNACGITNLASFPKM
Procedure: (§1) All assays for cathepsin K were carried out with human and rat recombinant enzyme. Assays for cathepsins S ? V were also carried out with human recombinant enzyme. Assays for human cathepsins B, H, and L were carried out with enzyme, purchased from Athens Research and Technology, Inc., prepared from human liver tissue. Standard assay conditions for the determination of kinetic constants used a fluorogenic peptide substrate, typically (5S,8S)-13-amino-5-benzyl-13-imino-3-methylene-N-(4-methyl-2-oxo-2H-chromen-7-yl)-6-oxo-1-phenyl-2-oxa-4,7,12triazatridecane-8-carboxamide (Cbz-Phe-Arg-AMC), and were determined in 100 mM sodium acetate at pH 5.5 containing 10 mM dithiothreitol and 120 mM sodium chloride. […]
(§2) All assays contained 10% dimethyl sulfoxide. […] Product fluorescence (excitation at 360 nm; emission at 440 nm, (except cathepsin H which used excitation at 340 nm; emission at 420 nm)) was monitored with a PerSeptive Biosystems Cytofluor II fluorescence plate reader. […]
Protein Purification: Media (human and rat) were filtered through a Whatman 3 filter, and then loaded onto a 25 mL. […] The column was washed until the absorbance reached the baseline value, and then the protein was eluted with a linear gradient from 0-2 M sodium chloride in the equilibration buffer. Column fractions were analyzed by SDS-PAGE, N-terminal sequencing, and mass spectrometry. […]

human cathepsin B = human cathepsin B (Homo sapiens, UniProt P07858); assay: Cathepsin B inhibition assay, enzyme from human liver tissue, Cbz-Phe-Arg-AMC; conditions: Table 2, human cathepsin B; read-out: h Cat B IC50
Procedure: as §1, §2
(§3) Potential inhibitors were evaluated using the progress curve method. […] For those compounds whose progress curves were linear, the enzymatic activity (RATE) was plotted against the concentration of test compound, including inhibitor concentration of zero ([I]=0), and the IC50 determined from a fit of equation 1 to the data, RATE=Vmax/(1+([I]/IC50)) (1) where Vmax is the best fit estimate of the maximal enzymatic activity. […]

human cathepsin H = human cathepsin H (Homo sapiens, UniProt P09668); assay: Cathepsin H inhibition assay, enzyme from human liver tissue, L-Arg-β-naphthalamide; conditions: Table 2, human cathepsin H; read-out: h Cat H IC50
Procedure: as §1, §2, §3

human cathepsin L = human cathepsin L (Homo sapiens, UniProt P07711); assay: Cathepsin L inhibition assay, enzyme from human liver tissue, Cbz-Phe-Arg-AMC; conditions: Table 2, human cathepsin L; read-out: h Cat L IC50
Procedure: as §1, §2, §3

human cathepsin S = human cathepsin S (Homo sapiens, UniProt P25774); assay: Cathepsin S inhibition assay, human recombinant enzyme, Cbz-Val-Val-Arg-AMC; conditions: Table 2, human cathepsin S; read-out: h Cat S IC50
Procedure: as §1, §2, §3

human cathepsin V = human cathepsin V (Homo sapiens, UniProt O60911); assay: Cathepsin V inhibition assay, human recombinant enzyme, Cbz-Phe-Arg-AMC; conditions: Table 2, human cathepsin V; read-out: h Cat V IC50
Procedure: as §1, §2, §3

Chain of human cathepsin L (P07711 114-333): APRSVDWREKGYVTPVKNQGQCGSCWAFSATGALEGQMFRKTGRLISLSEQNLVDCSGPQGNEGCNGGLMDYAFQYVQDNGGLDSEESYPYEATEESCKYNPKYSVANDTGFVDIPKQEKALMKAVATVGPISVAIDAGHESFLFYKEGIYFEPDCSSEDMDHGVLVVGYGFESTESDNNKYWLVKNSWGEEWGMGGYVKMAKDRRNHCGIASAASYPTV
Chain of human cathepsin V (O60911 114-334): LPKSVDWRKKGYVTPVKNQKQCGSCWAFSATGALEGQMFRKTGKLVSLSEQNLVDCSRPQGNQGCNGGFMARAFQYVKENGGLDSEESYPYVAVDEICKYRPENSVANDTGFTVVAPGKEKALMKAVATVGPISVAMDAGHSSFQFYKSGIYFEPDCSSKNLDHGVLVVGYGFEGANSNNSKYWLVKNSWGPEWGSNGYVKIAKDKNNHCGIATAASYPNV
Chain of human cathepsin S (P25774 115-331): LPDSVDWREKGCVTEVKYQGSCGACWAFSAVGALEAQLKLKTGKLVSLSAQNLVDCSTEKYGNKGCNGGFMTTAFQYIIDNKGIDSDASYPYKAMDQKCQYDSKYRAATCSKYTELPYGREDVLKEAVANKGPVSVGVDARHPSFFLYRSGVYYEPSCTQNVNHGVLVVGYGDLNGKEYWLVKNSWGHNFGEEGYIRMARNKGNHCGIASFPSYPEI
Chain of human cathepsin H (P09668 116-335 limits assumed, other chains not shown): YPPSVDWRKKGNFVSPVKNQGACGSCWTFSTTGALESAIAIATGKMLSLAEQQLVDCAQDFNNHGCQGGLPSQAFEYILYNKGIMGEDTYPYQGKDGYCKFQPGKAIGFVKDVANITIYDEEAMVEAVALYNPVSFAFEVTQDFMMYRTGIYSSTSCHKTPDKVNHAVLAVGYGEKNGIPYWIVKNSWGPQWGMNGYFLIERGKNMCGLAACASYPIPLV

Q: Which results are given for `CCCC[C@H](NC(=O)O[C@@H]1CN(C(=O)Nc2ccc(C(F)(F)F)cc2)CC1(C)C)C(=O)C(=O)Nc1ccn[nH]1` [Example 71, (3S)-4,4-dimethyl-1-{[4-(trifluoromethyl)anilino]carbonyl}pyrrolidinyl (1S)-1-[oxo(1H-pyrazol-5-ylamino)acetyl]pentylcarbamate]?
A: pIC50 (rat cathepsin K): 7.00 to 8.00; pIC50 (human cathepsin B): 6.00 to 7.00; pIC50 (human cathepsin H): 6.00 to 7.00; pIC50 (human cathepsin L): 6.00 to 7.00; pIC50 (human cathepsin S): 8.00 to 9.00; pIC50 (human cathepsin V): 7.00 to 8.00

Q: How did the pIC50 (rat cathepsin K) turn out when `CCCC[C@H](NC(=O)O[C@@H]1CN(c2nnc(C(F)(F)F)s2)CC1(C)C)C(=O)C(=O)Nc1ccn[nH]1` [Example 82, (3S)-4,4-Dimethyl-1-[5-(trifluoromethyl)-1,3,4-thiadiazol-2-yl]pyrrolidinyl-(1S)-1-[oxo(1H-pyrazol-5-ylamino)acetyl]pentylcarbamate] was run?
A: 7.00 to 8.00

Q: What about the pIC50 (human cathepsin B) of the same compound?
A: 6.00 to 7.00

Q: What about the pIC50 (human cathepsin H) of the same compound?
A: 6.00 to 7.00

Q: And the pIC50 (human cathepsin L)?
A: 6.00 to 7.00

Q: And the pIC50 (human cathepsin S)?
A: 7.00 to 8.00

Q: And the pIC50 (human cathepsin V)?
A: 7.00 to 8.00
